The values that follow come from patent US20230037103A1, “USE OF A COMPOUND OF 4-(3-ETHOXY-4-HYDROXYPHENYL) ALKYL KETONE TYPE AGAINST BACTERIA OF THE BURKHOLDERIA CEPACIA COMPLEX” (L’OREAL, priority 2019, published 2023).

The subject of assay [1] is bacteria of the Burkholderia cepacia complex. Description: Sensitivity test (MIC/MBC by agar dilution and broth dilution) on a Burkholderia strain panel. In kind it is cell-based. On the procedure: The minimum inhibitory concentration (MIC) and the minimum bactericidal concentration (MBC) of compounds of formula (I) of the invention, in particular EZ, were determined by standardized agar dilution and broth dilution tests, described by Rushton et al. Key role for efflux in the preservative susceptibility and adaptive resistance of Burkholderia cepacia complex bacteria. Antimicrobial Agents and Chemotherapy, 2013. 57(7): p. 2972-2980 using TSA/TSB. The culture was carried out at 30° C. in order to be representative of the production and storage of industrial products. Preserving stock solutions (50% w/v) were prepared in DMSO (Sigma-Aldrich, United Kingdom) and volumes were added to the medium so as to achieve the test concentration. The final concentration of DMSO in the presence of the bacterium was verified to be non-toxic (not exceeding 4% v/v) and was included as control condition in the tests in order to eliminate the effect on growth. […] The efficacy and toxicity of the neutralizing solution were evaluated before the experiment, as described in the scientific publication by Lear, J. C., et al. (J. C., et al., Chloroxylenol- and triclosan-tolerant bacteria from industrial sources—Susceptibility to antibiotics and other biocides. International Biodeterioration and Biodegradation, 2006. 57(1): p. 51-56). […]
On the technique in general: In agar dilution, organisms are placed on agar that contains the substance at set levels.

For assay [2] the test system is unchanged. Description: Reduction in viability of Bcc bacteria (preservative activity). In kind it is cell-based. Conditions: in 4 hours.
The test system of assay [3] is bacteria of the Bcc complex. Conditions: levels used in industry; cited from earlier work.

On to `CCOc1cc(CCC(C)=O)ccc1O` [EZ, 4-(3-ethoxy-4-hydroxyphenyl)butan-2-one], for which, in assay [1], the “inhibitory activity with respect to bacteria of the Burkholderia cepacia complex” value is on record as “very significant inhibitory activity”. Besides, the “efficacy against a diversified panel of 57 Burkholderia strains” value in assay [1] (strains representing species commonly encountered as contaminants, culture at 30° C.) was “excellent efficacy”. Also, in assay [2], the reduction in viability is 6 log.
Take `O=C([O-])c1ccccc1.[Na+]` [sodium benzoate]: in assay [3], the “efficacy with respect to contamination by bacteria of the Bcc complex” value is reported as “ineffective”.
